Results reported in patent US20230124862A1, “BISMUTH THIOL COMPOUNDS AND COMPOSITIONS AND METHODS OF TREATING MICROBIAL CO-INFECTIONS” (Microbion Corporation, priority 2020, published 2023).
Values after ≈ are worked out from the molar mass of the structure shown. Like-named read-outs stand apart in the source and are kept apart here.

Legend:
[1] = system: vancomycin-intermediate Staphylococcus aureus (VISA); assay: Broth microdilution MIC (Example 12); assay type: cell-based; conditions: Staphylococcus aureus, NRS 13 / VISA, all isolates except NRS 13; read-out: MIC values
[2] = system: Anaerobes (Bacteroides fragilis, Clostridium difficile); assay: Agar dilution MIC (Example 11); assay type: cell-based; conditions: read-out: MIC
Experimental: The susceptibility of anaerobic bacteria was determined by agar dilution using Brucella Agar (BD/BBL; Lot No. 5237692) supplemented with 5 μg/mL hemin (Sigma, St. Louis, Mo.; Lot No. 108K1088), 1 μg/mL Vitamin K1 and 5% (v/v) laked sheep blood (Cleveland Scientific, Bath, Ohio; Lot No. 322799).
Agar Dilution MIC Testing (Anaerobic Bacteria and Gonococci): MIC values for anaerobic bacteria were determined using a reference agar dilution method as described by CLSI (6). Organisms were grown at 35° C. in the Bactron II Anaerobic Chamber (Shel Lab, Cornelius, Oreg.) for approximately 48 hr prior to the assay. Drug dilutions and drug-supplemented agar plates were prepared manually per CLSI (6). The plates were allowed to stand at room temperature for 1 hr to allow the agar surface to dry and pre-reduced for approximately 1 hr in the anaerobe chamber prior to inoculation. Each isolate was suspended to the equivalent of a 0.5 McFarland standard in Brucella broth using a turbidity meter (Dade Behring MicroScan, West Sacramento, Calif.). Each bacterial cell suspension was then diluted 1:10 in Brucella broth and transferred to wells in a stainless steel replicator block which was used to inoculate the test plates. The prongs on the replicator deliver approximately 1-2 μl of inoculum to an agar surface. The resulting inoculum spots contained approximately 1×10^5 CFU/spot. After the inoculum dried, the inoculated drug-supplemented agar plates and no drug growth control plates were incubated at 35° C. for 42-48 hr in the anaerobe chamber. The MIC was read per CLSI guidelines (6).

[3] = system: Enterococcus spp.; assay: Broth microdilution MIC (Example 11); assay type: cell-based, E. faecalis, E. faecium; conditions: Lev^R Cip^R Ery^R, read-out: MIC
[4] = system: S. aureus; assay: Broth microdilution MIC (Example 11); assay type: cell-based, Staphylococcus aureus; conditions: Staphylococcus aureus, ATCC 29213 / MSSA, S. aureus MMX 101 (ATCC 29213); QC; MSSA; read-out: MIC
[5] = system: Aspergillus spp.; assay: Antifungal broth microdilution (Example 13); assay type: cell-based, A. niger, A. terreus, A. fumigatus, A. flavus; conditions: complete inhibition, comparator, time not stated
[6] = system: Candida krusei; assay: Antifungal broth microdilution (Example 13); assay type: cell-based; conditions: complete inhibition
[7] = system: Candida auris; assay: Antifungal broth microdilution (Example 13); assay type: cell-based; conditions: complete inhibition
[8] = system: Candida albicans; assay: Antifungal broth microdilution (Example 13); assay type: cell-based; conditions: complete inhibition, 24 hr
[9] = system: Candida glabrata; assay: Antifungal broth microdilution (Example 13); assay type: cell-based; conditions: complete inhibition
[10] = system: beta-hemolytic streptococci; assay: Broth microdilution MIC (Example 11); assay type: cell-based, S. pyogenes, S. agalactiae; conditions: ERY^R CC^R, read-out: MIC

## CCC[C@@H]1C[C@@H](C(=O)N[C@@H]([C@H]2O[C@H](SC)[C@H](O)[C@@H](O)[C@H]2O)[C@H](C)Cl)N(C)C1 [clindamycin, reference compound]
[1]
  MIC: > 4 µg/mL
[2]; Bacteroides fragilis, ATCC25285, B. fragilis MMX 123 (ATCC 25285), QC
  MIC: 1 µg/mL (≈ 2.35 µM)
[2]; C. difficile MMX 4381 (ATCC 700057), QC, CC^1
  MIC: 4 µg/mL (≈ 9.41 µM)
[2]; C. difficile MMX 5680 (NCTC 13336), ribotype 027, CC^1 MET^R
  MIC: 4 µg/mL (≈ 9.41 µM)
[2]; C. difficile MMX 5681 (NCTC 13307), ribotype 012, CC^R
  MIC: > 64 µg/mL
[2]; C. difficile MMX 8272, ribotype 255, CC^1
  MIC: 4 µg/mL (≈ 9.41 µM)
[2]; C. difficile MMX 8279, ribotype 005, CC^R
  MIC: > 64 µg/mL
[2]; C. difficile MMX 8281, ribotype 010, CC^R
  MIC: > 64 µg/mL
[3]; E. faecalis MMX 8960, VRE
  MIC: > 32 µg/mL
[3]; E. faecalis MMX 8961, VRE
  MIC: > 32 µg/mL
[3]; E. faecalis MMX 8962, VRE
  MIC: > 32 µg/mL
[3]; E. faecium MMX 485, VRE vanA
  MIC: > 32 µg/mL
[3]; E. faecium MMX 752, VRE vanA
  MIC: > 32 µg/mL
[4]
  MIC: 0.12 µg/mL (≈ 0.282 µM)

## C[C@@H]1[C@H](O)[C@@H](C)/C=C/C=C/C=C/C=C/C=C/C=C/C=C/[C@H](O[C@@H]2O[C@H](C)[C@@H](O)[C@H](N)[C@@H]2O)C[C@@H]2O[C@](O)(C[C@@H](O)C[C@@H](O)[C@H](O)CC[C@@H](O)C[C@@H](O)CC(=O)O[C@H]1C)C[C@H](O)[C@H]2C(=O)O [AMP B]
[5]; A. flavus ATCC 22546
  MIC0: 1 µg/mL
[5]; A. flavus ATCC 204304
  MIC0: 1 µg/mL
[5]; A. flavus MMX 7935
  MIC0: 1 µg/mL
[5]; A. fumigatus ATCC 204305
  MIC0: 1 µg/mL
[5]; A. fumigatus ATCC MYA-3626
  MIC0: 1 µg/mL
[5]; A. fumigatus MMX 5934
  MIC0: 1 µg/mL
[5]; A. fumigatus MMX 5938
  MIC0: 1 µg/mL
[5]; A. fumigatus MMX 5939
  MIC0: 1 µg/mL
[5]; A. niger ATCC 29508
  MIC0: 0.25 µg/mL
[5]; A. terreus MMX 8229
  MIC0: 0.25 µg/mL
[6]; C. krusei ATCC 6258, MICA-I
  MIC0: 0.5 µg/mL
[6]; C. krusei ATCC 14243, Susceptible
  MIC0: 0.25 µg/mL
[6]; C. krusei ATCC 96685, Susceptible
  MIC0: 0.5 µg/mL
[6]; C. krusei MMX 7125, Susceptible
  MIC0: 0.5 µg/mL
[6]; C. krusei MMX 7128, Susceptible
  MIC0: 0.5 µg/mL
[6]; C. krusei MMX 7141, Susceptible
  MIC0: 0.25 µg/mL
[6]; C. krusei MMX 7153, MICA-R
  MIC0: 0.5 µg/mL
[6]; C. krusei MMX 7155, Susceptible
  MIC0: 0.25 µg/mL
[6]; C. krusei MMX 7563, Susceptible
  MIC0: 0.5 µg/mL
[6]; C. krusei MMX 9878, MICA-I, VORI-I
  MIC0: 0.5 µg/mL
[7]; C. auris MMX 9862, Susceptible
  MIC0: 0.25 µg/mL
[7]; C. auris MMX 9863, FLU-R, VORI-R
  MIC0: 0.12 µg/mL
[7]; C. auris MMX 9864, FLU-R, VORI-R
  MIC0: 0.25 µg/mL
[7]; C. auris MMX 9865, FLU-R, VORI-R
  MIC0: 0.25 µg/mL
[7]; C. auris MMX 9866, FLU-R, VORI-R
  MIC0: 0.5 µg/mL
[7]; C. auris MMX 9867, FLU-R, VORI-R
  MIC0: 0.5 µg/mL
[7]; C. auris MMX 9868, FLU-R, VORI-R
  MIC0: 0.25 µg/mL
[7]; C. auris MMX 9869, FLU-R, VORI-R
  MIC0: 1 µg/mL
[7]; C. auris MMX 9870, FLU-R, VORI-R
  MIC0: 1 µg/mL
[7]; C. auris MMX 9871, Susceptible
  MIC0: 1 µg/mL
[8]; C. albicans ATCC 90028, Susceptible
  MIC0: 0.25 µg/mL
[8]; C. albicans ATCC 204276, MICA-R
  MIC0: 0.25 µg/mL
[8]; C. albicans ATCC MYA-2732, FLU-R, VORI-I
  MIC0: 0.25 µg/mL
[8]; C. albicans MMX 7053, Susceptible
  MIC0: 0.12 µg/mL
[8]; C. albicans MMX 7067, FLU-R, VORI-R
  MIC0: 0.25 µg/mL
[8]; C. albicans MMX 7403, Susceptible
  MIC0: 0.25 µg/mL
[8]; C. albicans MMX 7424, CASP-R, MICA-R
  MIC0: 0.25 µg/mL
[8]; C. albicans MMX 7430, Susceptible
  MIC0: 0.25 µg/mL
[8]; C. albicans MMX 7437, FLU-I
  MIC0: 0.25 µg/mL
[8]; C. albicans MMX 7445, FLU-R, VORI-R
  MIC0: 0.12 µg/mL
[9]; C. glabrata ATCC 90030, Susceptible
  MIC0: 0.25 µg/mL
[9]; C. glabrata ATCC MYA-2950, Susceptible
  MIC0: 0.12 µg/mL
[9]; C. glabrata MMX 7087, Susceptible
  MIC0: 0.12 µg/mL
[9]; C. glabrata MMX 7093, FLU-R
  MIC0: 0.25 µg/mL
[9]; C. glabrata MMX 7101, FLU-R
  MIC0: 0.25 µg/mL
[9]; C. glabrata MMX 7103, CASP-R, MICA-R
  MIC0: 0.25 µg/mL
[9]; C. glabrata MMX 7111, Susceptible
  MIC0: 0.25 µg/mL
[9]; C. glabrata MMX 7285, CASP-R, MICA-R
  MIC0: 0.25 µg/mL
[9]; C. glabrata MMX 7307, CASP-R, MICA-R, FLU-R
  MIC0: 0.25 µg/mL
[9]; C. glabrata MMX 7549, Susceptible
  MIC0: 0.25 µg/mL

## C[C@H]1COc2c(N3CCN(C)CC3)c(F)cc3c(=O)c(C(=O)O)cn1c23 [Levofloxacin, reference compound]
[1]
  MIC: > 4 µg/mL
[3]; E. faecalis MMX 8960, VRE
  MIC: 32 µg/mL (≈ 88.6 µM)
[3]; E. faecalis MMX 8961, VRE
  MIC: 64 µg/mL (≈ 177 µM)
[3]; E. faecalis MMX 8962, VRE
  MIC: 64 µg/mL (≈ 177 µM)
[3]; E. faecium MMX 485, VRE vanA
  MIC: > 64 µg/mL
[3]; E. faecium MMX 752, VRE vanA
  MIC: > 64 µg/mL
[10]; Streptococcus agalactiae, S. agalactiae MMX 3741
  MIC: 0.25 µg/mL (≈ 0.692 µM)
[10]; Streptococcus pyogenes, S. pyogenes MMX 5091
  MIC: 0.5 µg/mL (≈ 1.38 µM)
[4]
  MIC: 0.12 µg/mL (≈ 0.332 µM)
